The values below come from ChEMBL document CHEMBL1201862, “PubChem BioAssay data set” (2004).

SMILES strings stand for the structures. The source made the active and inactive calls. Some results are limits rather than exact numbers.

One experiment has as its system HeLa. In words: HeLa cell cytotoxicity, dose response, cytotoxicity control for MITF activator project, CellTiter-Glo luminescence, cherry-pick samples (AID 540259). The experiment is classed as functional, cell-based. To be noted: Homo sapiens.
The subject of another experiment is H4. Description: Luminescence Cell-Based Dose Response HTS to Identify Activators of 5'UTR Stem-Loop Driven Prion Protein mRNA Translation in H4 Neuroglioblastoma Cells. [Related pubchem assays: 1829 (Project Summary), 1814 (Primary HTS)]. The class given is functional. The note with it: Homo sapiens.
The nature of experiment [1]: Luminescence Cell-Based Dose Response HTS to Identify Activators of Luciferase Translation or Activity in H4 […] Cells. [Related pubchem assays: 1829 (Project Summary), 1814 (Primary HTS)]. The experiment is classed as functional.
The target in experiment [2] is Dual specificity tyrosine-phosphorylation-regulated kinase 1A (Rattus norvegicus, UniProt Q63470). The class given is biochemical, Homo sapiens.
The nature of experiment [3]: HepG2 cell cytotoxicity, dose response, cytotoxicity control for Shn3 inhibitor project, CellTiter-Glo, cherry-picked (AID 624134). The class given is functional, cell-based. (In general: In ATP-based viability assays light output follows the ATP content of the culture.)
The nature of experiment [4]: control 3'UTR Renilla luciferase suppression, dose response, counter-screen for Shn3 inhibitor project, cell-based, Clone20-Shn3RL, cherry-picked (AID 624133). The experiment is classed as functional.
Experiment [5] deals with T1, Microphthalmia-associated transcription factor (Homo sapiens, UniProt O75030).
T1 sequence (O75030 whole entry): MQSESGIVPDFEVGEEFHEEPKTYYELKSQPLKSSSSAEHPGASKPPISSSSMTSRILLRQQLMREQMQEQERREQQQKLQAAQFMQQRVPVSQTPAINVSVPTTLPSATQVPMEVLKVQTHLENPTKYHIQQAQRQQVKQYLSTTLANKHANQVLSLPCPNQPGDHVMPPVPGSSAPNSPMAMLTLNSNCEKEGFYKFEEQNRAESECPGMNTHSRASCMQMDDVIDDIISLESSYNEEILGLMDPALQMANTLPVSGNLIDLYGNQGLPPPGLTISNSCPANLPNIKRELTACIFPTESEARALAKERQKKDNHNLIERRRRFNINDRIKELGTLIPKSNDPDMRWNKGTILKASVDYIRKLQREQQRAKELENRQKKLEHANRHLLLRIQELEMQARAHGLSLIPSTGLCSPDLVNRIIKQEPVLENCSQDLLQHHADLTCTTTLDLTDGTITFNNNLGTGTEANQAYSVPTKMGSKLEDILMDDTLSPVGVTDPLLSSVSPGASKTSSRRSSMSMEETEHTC
In words: TRPM1 promoter luciferase signal decrease, dose response, MITF inhibitor project, cell-based, SK-MEL-5, cherry-picked, set 3 (AID 493073).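 Further: SK-MEL-5 melanoma cells with luciferase driven by the MITF target TRPM1 promoter.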 The class given is functional.

Experiment [6] can be described thus: Shn3 3'UTR reporter inhibitors, dose response, cell-based, Clone20 osteoblasts, firefly luciferase, cherry-picked (AID 624132).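 Further: firefly luciferase luminescence from reporter carrying the Shn3 3'UTR in osteoblasts.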 The experiment is classed as functional.
Another experiment deals with Escherichia coli. Description: microbe, parasite or virus in culture.
Experiment [7] deals with FAD-linked sulfhydryl oxidase ALR (Homo sapiens, UniProt P55789). In words: inhibitors of human ALR sulfhydryl oxidase, dose response, biochemical, H2O2 detection, luminescence, cherry-pick (AID 493248).
The target of the next experiment is SUMO-activating enzyme (Homo sapiens, UniProt Q9UBT2). In words: SUMOylation inhibitor hit validation, confirmation, SUMOylation inhibitor project, biochemical, AlphaScreen (AID 2018). The class given is functional. On the technique in general: In Alpha technology, singlet oxygen from a donor bead excites a nearby acceptor bead.
Another experiment concerns CHO-K1. In words: Counterscreen for antagonists of the orexin 1 receptor (OX1R; HCRTR1): Homogeneous time resolved fluorescence (HTRF)-based cell-based dose response assay to identify antagonists of the parental CHO-K1 cell line. [Related pubchem assays (depositor defined):AID434989, AID435008, AID463079, AID485270, AID492963, AID492964, AID492965, AID493232, AID504699, AID504701]. The class given is functional. To be noted: Cricetulus griseus. On the technique in general: The purpose of a counterscreen is to sort out artefacts and off-target activity.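 Further: potency for inhibition of ATP-stimulated IP1 production as antagonists.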

Experiment [8] can be described thus: Counterscreen for antagonists of the orexin 1 receptor (OX1R; HCRTR1): Fluorescence-based cell-based high throughput dose response assay to identify antagonists of the parental CHO cell line. [Related pubchem assays (depositor defined):AID434989, AID435008, AID463079, AID485270, AID492963, AID492964, AID492965, AID493232, AID504699, AID504701]. The experiment is classed as functional.

In experiment [9] the target is T2, Orexin/Hypocretin receptor type 1 (Homo sapiens, UniProt O43613).
T2 sequence (O43613 whole entry): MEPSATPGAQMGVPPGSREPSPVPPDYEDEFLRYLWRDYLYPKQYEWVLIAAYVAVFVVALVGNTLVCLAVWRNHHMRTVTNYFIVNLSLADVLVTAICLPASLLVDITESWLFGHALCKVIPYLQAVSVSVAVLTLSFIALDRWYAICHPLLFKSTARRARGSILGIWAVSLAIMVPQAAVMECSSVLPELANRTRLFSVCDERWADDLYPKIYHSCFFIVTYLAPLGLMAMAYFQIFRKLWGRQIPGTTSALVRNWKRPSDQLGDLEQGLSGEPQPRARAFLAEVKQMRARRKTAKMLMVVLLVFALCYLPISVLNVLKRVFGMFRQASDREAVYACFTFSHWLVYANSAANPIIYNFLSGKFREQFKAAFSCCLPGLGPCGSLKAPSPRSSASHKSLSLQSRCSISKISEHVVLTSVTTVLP
In words: Homogeneous Time Resolved Fluorescence (HTRF)-based cell-based high throughput dose response assay for antagonists of the orexin 1 receptor (OX1R; HCRTR1). [Related pubchem assays (depositor defined):AID434989, AID435008, AID463079, AID485270, AID492963, AID492964, AID492965, AID493232, AID504717, AID504718]. The experiment is classed as functional.

The target of experiment [10] is T2, Orexin/Hypocretin receptor type 1. In words: Fluorescence-based cell-based high throughput dose response assay for antagonists of the orexin 1 receptor (OX1R; HCRTR1). [Related pubchem assays (depositor defined):AID434989, AID435008, AID463079, AID485270, AID492963, AID492964, AID492965, AID493232, AID504717, AID504718]. The experiment is classed as functional.

Experiment [11] is described as follows: growth suppression of PTEN-null colon cells, dose response, cell-based, HCT116 PTEN knockout (AID 1047).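 Further: HCT116 colon tumor cells with PTEN knocked out; cells exposed to compound for 60 hours before readout; potency for loss of cell viability measured by luminescence.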 The experiment is classed as functional.
A short description of experiment [12]: growth suppression of beta-catenin-knockout colon cells, dose response, cell-based, HCT116, human colon tumor (AID 1045).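 Further: HCT116 colon tumor cells with beta catenin knocked out; cells exposed to compound for 60 hours.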 The experiment is classed as functional.
For another experiment, the target named is T3, Aminopeptidase N (Plasmodium falciparum FcB1/Columbia, UniProt O96935).
T3 sequence (O96935 whole entry): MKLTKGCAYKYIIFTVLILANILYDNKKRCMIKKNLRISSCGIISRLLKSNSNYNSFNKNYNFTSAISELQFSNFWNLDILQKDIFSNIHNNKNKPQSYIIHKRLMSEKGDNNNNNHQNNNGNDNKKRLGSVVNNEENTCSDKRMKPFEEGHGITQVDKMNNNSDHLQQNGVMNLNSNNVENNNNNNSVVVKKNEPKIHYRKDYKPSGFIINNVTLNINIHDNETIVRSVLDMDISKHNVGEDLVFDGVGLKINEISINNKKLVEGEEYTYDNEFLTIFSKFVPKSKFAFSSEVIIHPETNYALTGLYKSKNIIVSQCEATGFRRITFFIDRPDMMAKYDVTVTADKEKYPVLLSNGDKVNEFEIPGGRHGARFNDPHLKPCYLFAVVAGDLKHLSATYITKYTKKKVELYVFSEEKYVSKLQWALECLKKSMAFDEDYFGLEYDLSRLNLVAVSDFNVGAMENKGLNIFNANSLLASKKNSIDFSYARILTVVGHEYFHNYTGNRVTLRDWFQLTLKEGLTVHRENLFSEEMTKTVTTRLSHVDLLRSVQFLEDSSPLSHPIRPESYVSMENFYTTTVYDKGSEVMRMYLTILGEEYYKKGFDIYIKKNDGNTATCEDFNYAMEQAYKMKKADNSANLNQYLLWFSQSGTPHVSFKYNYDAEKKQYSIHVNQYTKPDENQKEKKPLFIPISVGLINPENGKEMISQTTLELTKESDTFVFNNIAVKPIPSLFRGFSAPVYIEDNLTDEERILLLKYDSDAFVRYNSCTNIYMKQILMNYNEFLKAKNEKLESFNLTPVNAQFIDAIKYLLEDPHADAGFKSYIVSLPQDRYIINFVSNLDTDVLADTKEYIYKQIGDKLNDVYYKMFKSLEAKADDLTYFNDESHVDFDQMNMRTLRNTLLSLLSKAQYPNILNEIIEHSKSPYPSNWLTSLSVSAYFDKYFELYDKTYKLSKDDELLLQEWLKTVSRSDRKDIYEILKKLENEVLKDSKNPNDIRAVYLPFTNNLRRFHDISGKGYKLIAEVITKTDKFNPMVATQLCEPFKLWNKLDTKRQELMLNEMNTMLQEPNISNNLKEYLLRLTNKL
Description: P. falciparum M1AAP inhibitors, biochemical, fluorogenic H-Leu-NHMec substrate, 1536-well (AID 1445). More on the design: species or system Plasmodium falciparum 3D7, 3D7.

Sequence of SUMO-activating enzyme (Q9UBE0 whole entry): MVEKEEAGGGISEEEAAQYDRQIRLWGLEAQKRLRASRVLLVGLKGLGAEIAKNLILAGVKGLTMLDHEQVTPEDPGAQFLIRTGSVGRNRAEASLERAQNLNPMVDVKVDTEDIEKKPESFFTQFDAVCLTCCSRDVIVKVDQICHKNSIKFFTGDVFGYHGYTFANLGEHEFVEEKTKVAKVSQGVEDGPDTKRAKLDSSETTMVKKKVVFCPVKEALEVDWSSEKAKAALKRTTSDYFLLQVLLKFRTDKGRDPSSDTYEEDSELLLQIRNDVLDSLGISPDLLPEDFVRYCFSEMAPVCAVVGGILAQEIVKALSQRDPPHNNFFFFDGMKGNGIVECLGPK
Sequence of SUMO-activating enzyme (Q9UBT2 whole entry): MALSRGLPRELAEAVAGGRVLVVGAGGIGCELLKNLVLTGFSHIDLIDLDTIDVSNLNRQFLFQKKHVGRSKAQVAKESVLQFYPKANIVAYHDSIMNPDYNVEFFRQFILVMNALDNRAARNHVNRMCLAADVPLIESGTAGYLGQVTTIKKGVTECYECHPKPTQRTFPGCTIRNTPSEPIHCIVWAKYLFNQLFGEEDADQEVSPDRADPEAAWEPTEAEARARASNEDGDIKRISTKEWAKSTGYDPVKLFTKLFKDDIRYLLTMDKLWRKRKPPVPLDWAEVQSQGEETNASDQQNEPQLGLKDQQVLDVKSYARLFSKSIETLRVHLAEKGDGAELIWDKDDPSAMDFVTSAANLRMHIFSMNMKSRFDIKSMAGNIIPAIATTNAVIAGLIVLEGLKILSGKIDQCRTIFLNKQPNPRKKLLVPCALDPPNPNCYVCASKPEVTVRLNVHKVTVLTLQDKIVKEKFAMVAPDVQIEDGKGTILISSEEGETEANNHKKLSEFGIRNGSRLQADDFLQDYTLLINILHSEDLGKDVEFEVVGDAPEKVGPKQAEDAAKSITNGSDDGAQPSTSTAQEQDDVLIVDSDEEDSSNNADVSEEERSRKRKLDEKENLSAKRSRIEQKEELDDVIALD
Sequence of FAD-linked sulfhydryl oxidase ALR (P55789 whole entry): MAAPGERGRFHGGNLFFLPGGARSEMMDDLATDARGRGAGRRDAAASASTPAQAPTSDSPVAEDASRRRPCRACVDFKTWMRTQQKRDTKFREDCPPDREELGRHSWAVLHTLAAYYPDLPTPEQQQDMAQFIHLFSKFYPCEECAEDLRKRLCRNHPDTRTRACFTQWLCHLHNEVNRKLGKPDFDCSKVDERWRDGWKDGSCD

For `CC(C)c1ccc(/C=N/NC(=O)C2CCCC2)cc1`, the AC50 in the experiment with HeLa was 132 µM (active). Also, the EC50 in the experiment with H4 is 2.72 µM (active); in experiment [1], 8.02 µM (active).

As to `Nc1c(C(=O)O)ccc2c1C(=O)c1ccccc1C2=O`, in experiment [2], the AC50 is 1.28 µM (active).

For `CC1CCC/C=C/C(=O)c2c(O)cc(O)cc2CC(=O)O1` (stereo not given), the AC50 in [3] is > 70 µM (inactive); in experiment [4], 13.6 µM (active); in [5], 5.79 µM (active); in experiment [6], 4.12 µM (active).

Take `COc1cc(/C=C2/C(=N)N3C(SC)=NSC3=NC2=O)ccc1OC(=O)c1ccco1`: the concentration at half-maximal activity (AC50) in [2] is 5.64 µM (active).

As to `CCc1ccc(N2CC(C(=O)N3CCN(c4ccccn4)CC3)CC2=O)cc1` (stereo not given), in the experiment with Escherichia coli, the AC50 is 29.9 µM (active).

As for `Nc1ccc2oc(-c3cccs3)nc2c1`, the AC50 in experiment [7] is 0.155 µM (active); in the experiment with HeLa, 168 µM (active).

Consider `COc1ccc(-c2nc3cc([N+](=O)[O-])ccc3[nH]2)cc1`, for which, on SUMO-activating enzyme, the IC50 was 35 µM (active).

Regarding `CCSc1nnc(NC(=O)NC2CCCCC2)s1`, the AC50 in the experiment on HeLa is 136 µM (active).

Consider `COc1ccc(CNC(=O)COC(=O)[C@H](Cc2c[nH]c3ccccc23)NC(=O)c2cccs2)cc1`, for which the IC50 with CHO-K1 is > 66.2 µM (inactive); in experiment [8], 12.8 µM (inactive); in experiment [9] it was 26.9 µM (inactive); in [10], 13.1 µM (inactive).

For `CCc1ccc(NC(=O)c2nnc(O)c3ccccc23)cc1`, the AC50 in the experiment on HeLa is > 350 µM (inactive).

As to `CC1CCc2cc(F)cc3c(=O)c(C(=O)O)cn1c23` (stereo not given) [FLUMEQUINE], the AC50 in the experiment with Escherichia coli was 1.99 µM (active).

As to `Oc1c(Br)cc(C2NC(c3ccccc3)=NO2)cc1Br` (stereo not given), the AC50 in the experiment on Escherichia coli was 20.2 µM (active).

Regarding `CC(C)n1c(=O)[nH][nH]c1=S`, the IC50 was > 66.2 µM (inactive) with CHO-K1, > 49.8 µM (inactive) in experiment [8], 7.04 µM (active) in experiment [9] and 34.4 µM (inactive) in [10].

For the molecule `CCOc1ccc2nc(C)cc(Nc3cccc([N+](=O)[O-])c3)c2c1`, the AC50 in [5] was 17.8 µM (active). The EC50 in [11] is 5.88 µM (active); in experiment [12], 7.34 µM (active).

Turning to `NS(=O)(=O)c1ccc(CCNC(=O)Cc2ccc(S(=O)(=O)N3CCCC3)s2)cc1`, the IC50 on Aminopeptidase N is 8.91 µM (active). Moreover, the half-maximal activity concentration (AC50) in the experiment on Escherichia coli was 39.6 µM (active).

As a reminder, the AC50 is the concentration at which the activity in the assay is half-maximal. In general, EC50 refers to the midpoint of the concentration-response curve. Usually IC50 stands for the midpoint of a concentration-inhibition curve.
